# Measurements reported in patent US5171837A, “Peptide capable of binding interleukin 6 and an adsorbent comprising the peptide immobilized on a carrier” (Kuraray Co., Ltd., priority 1989, dated 1992).
# Non-standard residues stand in square brackets, D forms with d. Residues, ends and D or L forms follow the SMILES beside them. No end group written: not given here. *: point of attachment. X1 = NCCCCCCCCCCCCCCCCCC(=O)*; 12Ado = NCCCCCCCCCCCC(=O)O
# Biological target: T1, IL-6 (Homo sapiens, UniProt P05231)
# T1 construct: purchased Genzyme Corp
# Experiment: Activity for inhibition of binding of IL-6 to receptor by peptide (IL-6 receptor expression cells, FITC labeled anti-IL-6 antibody)
# Details: 5 μg of the peptide, 50 ng of IL-6, 10^5 IL-6 receptor expression cells, 4° C for one hour
# Description: A human lymphocyte fraction was obtained from human peripheral blood with Ficoll-Paque (manufactured by Pharmacia-LKB). The fraction was reacted with a cultured supernatant of Epstein-Barr Virus producing cell strain B958 to transform the human lymphocytes to obtain IL-6 receptor expression cells.
# 1 mg of anti-human IL-6 antibody [Rabbit Anti-human Interleukin-6, manufactured by Genzyme Corp.] was dissolved in a 0.05M carbonate buffer solution (pH: 9.5) and to the resulting solution was added 10 μg of FITC [Fluorescein isothiocyanate, manufactured by Sigma Corp.]. The mixture was stirred at 4° C. overnight. The resulting solution was passed through PD-10 column (manufactured by Pharmacia-LKB) to obtain FITC labeled anti-IL-6 antibody as a firstly eluted fraction.
# 10^5 IL-6 receptor expression cells were suspended in 0.5 % BSA (bovine serum albumin, manufactured by Sigma Corp.)-PBS (a phosphate buffer solution containing 0.15 M sodium chloride, pH 7.4) and to the resulting suspension were added 50 ng of IL-6 (Human recombinant interleukin-6, manufactured by Genzyme Corp.) and 5 μg of the peptide obtained in any one of Examples 1 to 96. The suspension was allowed to stand at 4° C for one hour. Then, after washing the cells centrifugally with 0.5% BSA-PBS three times (1200 rpm, 5 min.), 1 μg of FITC labeled anti-IL-6 antibody was added and the mixture was allowed to stand at 4° C. for 30 minutes. After washing with 0.5% BSA-PBS three times, the intensity of fluorescence of the cells was determined. The binding inhibition activity of the peptide of each Example was evaluated, by taking the value obtained without addition of the peptide as a control and taking the value- obtained without addition of IL-6 as a blank, according to the following formula: [formula]
# T1 sequence (P05231 30-212): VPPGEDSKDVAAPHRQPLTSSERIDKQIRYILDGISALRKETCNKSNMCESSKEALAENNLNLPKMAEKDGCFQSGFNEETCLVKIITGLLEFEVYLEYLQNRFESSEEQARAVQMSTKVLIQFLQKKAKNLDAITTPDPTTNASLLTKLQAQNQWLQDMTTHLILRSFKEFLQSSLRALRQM
row,Binding inhibition activity (%),Molecule
1,47%,CC[C@H](C)[C@H](NC(=O)[C@H](CC(N)=O)NC(=O)[C@H](CC(=O)O)NC(=O)[C@H](CC(=O)O)NC(=O)[C@H](CC(=O)O)NC(=O)[C@H](CCCCN)NC(=O)[C@H](CC(N)=O)NC(=O)[C@@H](NC(=O)[C@@H](NC(=O)[C@H](CC(C)C)NC(=O)[C@H](C)NC(=O)[C@H](CCC(N)=O)NC(=O)CCCCCCCCCCCCCCCCCN)[C@@H](C)O)[C@@H](C)O)C(=O)N[C@@H](CC(C)C)C(=O)N[C@@H](Cc1ccccc1)C(=O)N[C@@H](CCCNC(=N)N)C(=O)N[C@@H](CC(=O)O)C(=O)N[C@@H](CO)C(=O)N[C@@H](C)C(=O)NCC(=O)O [Example 28] (X1-QALTTNKDDDNILFRDSAG-OH)
2,72%,EEEQDPHSWNSSFYRLRFELRYRAERSKKG-NH2 [Example 87]
3,57%,DDDDDPHSWNSSFYRLRFELRYRAERSKAAG-NH2 [Example 72]
4,60%,QDPHSWNSSFYRLRFELRYRAERSK [Example 85]
5,62%,CC(C)C[C@H](NC(=O)[C@H](CCC(=O)O)NC(=O)[C@H](Cc1ccccc1)NC(=O)[C@H](CCCNC(=N)N)NC(=O)[C@H](CC(C)C)NC(=O)[C@H](CCCNC(=N)N)NC(=O)[C@H](Cc1ccc(O)cc1)NC(=O)[C@H](Cc1ccccc1)NC(=O)[C@H](CO)NC(=O)[C@H](CO)NC(=O)[C@H](CC(N)=O)NC(=O)[C@H](Cc1c[nH]c2ccccc12)NC(=O)CCCCCCCCCCCCCCCCCN)C(=O)N[C@@H](CCCNC(=N)N)C(=O)N[C@@H](Cc1ccc(O)cc1)C(=O)N[C@@H](CCCNC(=N)N)C(=O)N[C@@H](C)C(=O)N[C@@H](CCC(=O)O)C(=O)N[C@@H](CCCNC(=N)N)C(=O)N[C@@H](CO)C(=O)N[C@@H](CCCCN)C(=O)NCC(=O)O [Example 36] (X1-WNSSFYRLRFELRYRAERSKG-OH)
6,42%,CC(C)C[C@H](NC(=O)[C@@H](NC(=O)[C@@H](NC(=O)[C@H](CO)NC(=O)[C@H](CC(=O)O)NC(=O)CNC(=O)[C@@H]1CCCN1C(=O)[C@H](CC(C)C)NC(=O)[C@H](CO)NC(=O)[C@@H](NC(=O)CCCCCCCCCCCCCCCCCN)[C@@H](C)O)C(C)C)[C@@H](C)O)C(=O)N[C@H](C(=O)N[C@@H](CS)C(=O)N1CCC[C@H]1C(=O)NCC(=O)N[C@H](C(=O)N[C@@H](CCC(=O)O)C(=O)N1CCC[C@H]1C(=O)N[C@@H](CCC(=O)O)C(=O)N[C@@H](CC(=O)O)C(=O)NCC(=O)O)C(C)C)[C@@H](C)O [Example 4] (X1-TSLPGDSVTLTCPGVEPEDG-OH)
7,65%,C[C@H](NC(=O)[C@@H]1CCCN1C(=O)[C@H](CO)NC(=O)[C@H](CC(N)=O)NC(=O)[C@H](CCC(N)=O)NC(=O)[C@H](Cc1ccccc1)NC(=O)[C@H](CCCCN)NC(=O)[C@H](CCCNC(=N)N)NC(=O)CCCCCCCCCCCCCCCCCN)C(=O)N[C@@H](CCC(=O)O)C(=O)N[C@@H](CC(=O)O)C(=O)N[C@@H](Cc1ccccc1)C(=O)N[C@@H](CCC(N)=O)C(=O)N[C@@H](CCC(=O)O)C(=O)N1CCC[C@H]1C(=O)N[C@@H](CS)C(=O)N[C@@H](CCC(N)=O)C(=O)N[C@@H](Cc1ccc(O)cc1)C(=O)N[C@@H](CO)C(=O)N[C@@H](CCC(N)=O)C(=O)N[C@@H](CCC(=O)O)C(=O)N[C@@H](CO)C(=O)NCC(=O)O [Example 20] (X1-RKFQNSPAEDFQEPCQYSQESG-OH)
8,65%,KKPHSWNSSFYRLRFELRYRAERSK [Example 66]
9,63%,KWQDPHSWNSSFYRLRFELRYRAERSKD-NH2 [Example 94]
10,54%,PHSWNSSFYRLRFELRYRAERSK [Example 69]
11,30%,EEEGTVHLLVDVPPEEPQLSCFRKKG-NH2 [Example 15]
12,25%,DDDDDNPRWLSVTWQDPHSAAG-NH2 [Example 56]
13,22%,NPRWLSVTWQDPHS [Example 53]
14,52%,DDDDDWQDPHSWNSSFYRLRFELRYRAERSKAAG-NH2 [Example 96]
15,37%,DDDDDTSLPGDSVTLTCPGVEPEDAAG-NH2 [Example 8]
16,71%,KKWQDPHSWNSSFYRLRFELRYRAERSK [Example 90]
17,52%,RKFQNSPAEDFQEPCQYSQES [Example 21]
18,34%,CC(C)C[C@H](NC(=O)[C@H](Cc1c[nH]cn1)NC(=O)[C@@H](NC(=O)[C@@H](NC(=O)CNC(=O)CCCCCCCCCCCN)[C@@H](C)O)C(C)C)C(=O)N[C@@H](CC(C)C)C(=O)N[C@H](C(=O)N[C@@H](CC(=O)O)C(=O)N[C@H](C(=O)N1CCC[C@H]1C(=O)N1CCC[C@H]1C(=O)N[C@@H](CCC(=O)O)C(=O)N[C@@H](CCC(=O)O)C(=O)N1CCC[C@H]1C(=O)N[C@@H](CCC(N)=O)C(=O)N[C@@H](CC(C)C)C(=O)N[C@@H](CO)C(=O)N[C@@H](CS)C(=O)N[C@@H](Cc1ccccc1)C(=O)N[C@@H](CCCNC(=N)N)C(=O)N[C@@H](CCCCN)C(=O)N[C@@H](CCC(=O)O)C(=O)N[C@@H](CCC(=O)O)C(=O)N[C@@H](CCC(=O)O)C(=O)N[C@@H](CCC(=O)O)C(=O)N[C@@H](CCC(=O)O)C(=O)O)C(C)C)C(C)C [Example 11] (H-[12Ado]GTVHLLVDVPPEEPQLSCFRKEEEEE-OH)
19,62%,CC(C)C[C@H](NC(=O)[C@H](CCC(=O)O)NC(=O)[C@H](Cc1ccccc1)NC(=O)[C@H](CCCNC(=N)N)NC(=O)[C@H](CC(C)C)NC(=O)[C@H](CCCNC(=N)N)NC(=O)[C@H](Cc1ccc(O)cc1)NC(=O)[C@H](Cc1ccccc1)NC(=O)[C@H](CO)NC(=O)[C@H](CO)NC(=O)[C@H](CC(N)=O)NC(=O)[C@H](Cc1c[nH]c2ccccc12)NC(=O)[C@H](CO)NC(=O)[C@H](Cc1c[nH]cn1)NC(=O)[C@@H]1CCCN1C(=O)[C@H](CC(=O)O)NC(=O)[C@H](CCC(N)=O)NC(=O)[C@H](Cc1c[nH]c2ccccc12)NC(=O)CCCCCCCCCCCCCCCCCN)C(=O)N[C@@H](CCCNC(=N)N)C(=O)N[C@@H](Cc1ccc(O)cc1)C(=O)N[C@@H](CCCNC(=N)N)C(=O)N[C@@H](C)C(=O)N[C@@H](CCC(=O)O)C(=O)N[C@@H](CCCNC(=N)N)C(=O)N[C@@H](CO)C(=O)N[C@@H](CCCCN)C(=O)NCC(=O)O [Example 92] (X1-WQDPHSWNSSFYRLRFELRYRAERSKG-OH)
20,60%,KDPHSWNSSFYRLRFELRYRAERSKD-NH2 [Example 78]
21,55%,KKWNSSFYRLRFELRYRAERSK [Example 34]
22,76%,QDPHSWNSSFYRLRFELRYRAERSKK [Example 81]
23,63%,CC(C)C[C@H](NC(=O)[C@H](CCC(=O)O)NC(=O)[C@H](Cc1ccccc1)NC(=O)[C@H](CCCNC(=N)N)NC(=O)[C@H](CC(C)C)NC(=O)[C@H](CCCNC(=N)N)NC(=O)[C@H](Cc1ccc(O)cc1)NC(=O)[C@H](Cc1ccccc1)NC(=O)[C@H](CO)NC(=O)[C@H](CO)NC(=O)[C@H](CC(N)=O)NC(=O)[C@H](Cc1c[nH]c2ccccc12)NC(=O)[C@H](CO)NC(=O)[C@H](Cc1c[nH]cn1)NC(=O)[C@@H]1CCCN1C(=O)[C@H](CC(=O)O)NC(=O)CCCCCCCCCCCN)C(=O)N[C@@H](CCCNC(=N)N)C(=O)N[C@@H](Cc1ccc(O)cc1)C(=O)N[C@@H](CCCNC(=N)N)C(=O)N[C@@H](C)C(=O)N[C@@H](CCC(=O)O)C(=O)N[C@@H](CCCNC(=N)N)C(=O)N[C@@H](CO)C(=O)N[C@@H](CCCCN)C(=O)N[C@@H](CCC(=O)O)C(=O)N[C@@H](CCC(=O)O)C(=O)N[C@@H](CCC(=O)O)C(=O)N[C@@H](CCC(=O)O)C(=O)N[C@@H](CCC(=O)O)C(=O)O [Example 75] (H-[12Ado]DPHSWNSSFYRLRFELRYRAERSKEEEEE-OH)
24,60%,CC(C)C[C@H](NC(=O)[C@H](CCC(=O)O)NC(=O)[C@H](Cc1ccccc1)NC(=O)[C@H](CCCNC(=N)N)NC(=O)[C@H](CC(C)C)NC(=O)[C@H](CCCNC(=N)N)NC(=O)[C@H](Cc1ccc(O)cc1)NC(=O)[C@H](Cc1ccccc1)NC(=O)[C@H](CO)NC(=O)[C@H](CO)NC(=O)[C@H](CC(N)=O)NC(=O)[C@H](Cc1c[nH]c2ccccc12)NC(=O)CCCCCCCCCCCN)C(=O)N[C@@H](CCCNC(=N)N)C(=O)N[C@@H](Cc1ccc(O)cc1)C(=O)N[C@@H](CCCNC(=N)N)C(=O)N[C@@H](C)C(=O)N[C@@H](CCC(=O)O)C(=O)N[C@@H](CCCNC(=N)N)C(=O)N[C@@H](CO)C(=O)N[C@@H](CCCCN)C(=O)N[C@@H](CCC(=O)O)C(=O)N[C@@H](CCC(=O)O)C(=O)N[C@@H](CCC(=O)O)C(=O)N[C@@H](CCC(=O)O)C(=O)N[C@@H](CCC(=O)O)C(=O)O [Example 35] (H-[12Ado]WNSSFYRLRFELRYRAERSKEEEEE-OH)
25,59%,WQDPHSWNSSFYRLRFELRYRAERSK [Example 93]
26,68%,PHSWNSSFYRLRFELRYRAERSKK [Example 65]
27,46%,KQALTTNKDDDNILFRDSAD-NH2 [Example 30]
28,71%,DPHSWNSSFYRLRFELRYRAERSKK [Example 73]
29,55%,DDDDDHSWNSSFYRLRFELRYRAERSKAAG-NH2 [Example 64]
30,28%,EEENPRWLSVTWQDPHSKG-NH2 [Example 55]
